Experimental data: ChEMBL document CHEMBL1138432, “Cytotoxic cucurbitacin constituents from Sloanea zuliaensis” (2003)

Experiments:
Format in all cases: functional
[1] = tested on: MCF7; experiment: Cytotoxicity against human MCF7 cells
[2] = tested on: NCI-H460; experiment: Cytotoxicity against human H460 cells
[3] = tested on: SF-268; experiment: Cytotoxicity against human SF268 cells

CC(=O)OC(C)(C)/C=C/C(=O)[C@](C)(O)[C@H]1[C@H](O)C[C@@]2(C)[C@@H]3CC=C4[C@@H](C[C@H](O)[C@@H](O)C4(C)C)[C@]3(C)C(=O)C[C@]12C
GI50 [1]: 110 nM
GI50 [2]: 65 nM
GI50 [3]: 87 nM

CC(C)(O)/C=C/C(=O)[C@](C)(O)[C@H]1[C@H](O)C[C@@]2(C)[C@@H]3CC=C4[C@@H](CCC(=O)C4(C)C)[C@]3(C)C(=O)C[C@]12C
GI50 [1]: 41 nM
GI50 [2]: 32 nM
GI50 [3]: 210 nM

CC(C)(O)/C=C/C(=O)[C@](C)(O)[C@H]1[C@H](O)C[C@@]2(C)[C@@H]3CC=C4[C@@H](C[C@H](O)C(=O)C4(C)C)[C@]3(C)C(=O)C[C@]12C [CUCURBITACIN D]
GI50 [1]: 20 nM
GI50 [2]: 13 nM
GI50 [3]: 21 nM
